From ChEMBL document CHEMBL3046460, “Preparation of Dinotefuran Related Compounds and Agonistic Action on SAD2 Hybrid Nicotinic Acetylcholine Receptors Expressed in Xenopus laevis Oocytes” (J Pestic Sci, 2002)

Assay: Agonist activity at Drosophila melanogaster SAD/chicken beta2 nAChR expressed in Xenopus laevis oocytes assessed as inward current by two-electrode voltageclamp technique
Format: cell-based

Going from `O=[N+]([O-])/N=C1\NCCN1Cc1ccc(Cl)nc1` [IMIDACLOPRID] to `O=[N+]([O-])/N=C1\NCCN1CC1CCOC1` (centres undefined), the EC50 rises from 2.82 µM to 148 µM (52-fold).

Compared with `CN/C(=N/CC1CCOC1)N[N+](=O)[O-]` (centres undefined) [DINOTEFURAN], `CC(=O)OCC[N+](C)(C)C` [ACETYLCHOLINE] is 11-fold lower in EC50: 224 µM for the first, 20 µM for the second.
